Test results published in PubChem BioAssay AID330 (DTP/NCI, 2004).
“And” between values parts separate entries of the source, which are not always exact repeats. Equal values may be shown once. Toxic doses and inconclusive results are not listed. Peptide text beside a SMILES is read from it. * marks the point of attachment. Cbz = O=C(OCc1ccccc1)*

Test system: P388 leukemia ip, CD2F1 mice, survival T/C
Assay: NCI In Vivo Anticancer Drug Screen. Data for tumor model P388 Leukemia (intraperitoneal) in CD2F1 (CDF1) mice
Settings: endpoint: median survival time, higher = longer survival
Summary of the method: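 Mice carrying the transplanted tumor received test compound or vehicle. Survival was recorded in each group, and the value is the treated-group measurement divided by that of the vehicle-treated control group.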

[1] = dose: 50.0 mg/kg/injection, schedule: Q01DX009 (ip), vehicle: saline with Tween-80
[2] = dose: 50.0 mg/kg/injection, schedule: Q01DX005 (ip), vehicle: saline with Tween-80
[3] = dose: 100.0 mg/kg/injection, schedule: Q01DX005 (ip), vehicle: saline with Tween-80
[4] = dose: 200.0 mg/kg/injection, schedule: Q01DX005 (ip), vehicle: saline with Tween-80
[5] = dose: 25.0 mg/kg/injection, schedule: Q01DX009 (ip), vehicle: water
[6] = dose: 100.0 mg/kg/injection, schedule: Q01DX009 (ip), vehicle: saline with Tween-80
[7] = dose: 200.0 mg/kg/injection, schedule: Q01DX009 (ip), vehicle: saline with Tween-80
[8] = dose: 25.0 mg/kg/injection, schedule: Q01DX005 (ip), vehicle: Klucel (hydroxypropylcellulose) (HPC)
[9] = dose: 50.0 mg/kg/injection, schedule: Q01DX005 (ip), vehicle: Klucel (hydroxypropylcellulose) (HPC)
[10] = dose: 50.0 mg/kg/injection, schedule: Q01DX009 (ip), vehicle: Klucel (hydroxypropylcellulose) (HPC)
[11] = dose: 100.0 mg/kg/injection, schedule: Q01DX009 (ip), vehicle: Klucel (hydroxypropylcellulose) (HPC)
[12] = dose: 200.0 mg/kg/injection, schedule: Q01DX009 (ip), vehicle: Klucel (hydroxypropylcellulose) (HPC)

Question: Which results are given for `CC1OC(OCC2OC(OCCc3ccc(O)c(O)c3)C(O)C(OC3OC(C)C(O)C(O)C3O)C2O)C(O)C(O)C1O` (configuration not stated) (tested in a mixture with another compound)?
Answer: T/C (dose: 9.5 mg/kg/injection, schedule: Q01DX009 (ip), vehicle: saline): 105 % of control; T/C (dose: 19.0 mg/kg/injection, schedule: Q01DX009 (ip), vehicle: saline): 103 % of control; T/C (dose: 38.0 mg/kg/injection, schedule: Q01DX009 (ip), vehicle: saline): 112 % of control; T/C (dose: 76.0 mg/kg/injection, schedule: Q01DX009 (ip), vehicle: saline): 103 % of control

Question: Which results are given for `CCCCCCCCCCCCCCCCCC[N+]1(CC)CCCCC1`?
Answer: T/C (dose: 0.04 mg/kg/injection, schedule: Q01DX009 (ip), vehicle: saline): 95 % of control; T/C (dose: 0.09 mg/kg/injection, schedule: Q01DX009 (ip), vehicle: saline): 92 % of control; T/C (dose: 0.19 mg/kg/injection, schedule: Q01DX009 (ip), vehicle: saline): 103 % of control and 118 % of control; T/C (dose: 0.39 mg/kg/injection, schedule: Q01DX009 (ip), vehicle: saline): 113 % of control and 120 % of control; T/C (dose: 0.78 mg/kg/injection, schedule: Q01DX009 (ip), vehicle: saline): 99 % of control

Question: With `Cc1ccc(NCN2C(=O)c3ccccc3C2=O)c(C)n1` as the molecule, how does the T/C (dose: 60.0 mg/kg/injection, schedule: Q01DX005 (ip), vehicle: Klucel (hydroxypropylcellulose) (HPC)) read?
Answer: 92 % of control

Question: What about the T/C (dose: 120.0 mg/kg/injection, schedule: Q01DX005 (ip), vehicle: Klucel (hydroxypropylcellulose) (HPC)) of the same molecule?
Answer: 89 % of control

Question: For `C=C1C(=O)OC2CC(C)(O)C(O)CC3OC3(C)CC(OC(=O)/C(C)=C/C)C12` (configuration not stated), which T/C (dose: 1.25 mg/kg/injection, schedule: Q01DX005 (ip), vehicle: Klucel (hydroxypropylcellulose) (HPC)) is on record?
Answer: 99 % of control

Question: And the T/C (dose: 2.5 mg/kg/injection, schedule: Q01DX005 (ip), vehicle: Klucel (hydroxypropylcellulose) (HPC))?
Answer: 101 % of control

Question: What about the T/C (dose: 5.0 mg/kg/injection, schedule: Q01DX005 (ip), vehicle: Klucel (hydroxypropylcellulose) (HPC)) of the same molecule?
Answer: 108 % of control

Question: And the T/C (dose: 10.0 mg/kg/injection, schedule: Q01DX005 (ip), vehicle: Klucel (hydroxypropylcellulose) (HPC))?
Answer: 110 % of control

Question: `CON/C=C(C#N)/C=C/C=Nc1ccc(S(=O)(=O)N=C(N)N)cc1` was tested. Which T/C (dose: 12.5 mg/kg/injection, schedule: Q01DX009 (ip), vehicle: saline with Tween-80) did it give?
Answer: 98 % of control

Question: What about the T/C (dose: 25.0 mg/kg/injection, schedule: Q01DX009 (ip), vehicle: saline with Tween-80) of the same molecule?
Answer: 93 % of control

Question: And the T/C [1]?
Answer: 87 % of control and 92 % of control

Question: Which T/C [2] does the source give for `CC(C)CC(NC(=O)C(NC(=O)OCc1ccccc1)C(C)C)C(=O)O` (stereo not drawn) (Cbz-Val-Leu-OH; configuration not given here) here?
Answer: 92 % of control

Question: What about the T/C [3] of the same molecule?
Answer: 106 % of control

Question: What about the T/C [4] of the same molecule?
Answer: 111 % of control

Question: For `Cc1ccc(OP(=O)(Oc2ccc(C)cc2)Oc2ccc(C)cc2)cc1.Cc1ccc(OP(=O)(Oc2ccc(C)cc2)Oc2ccc(C)cc2)cc1.Cc1ccc(OP(=O)(Oc2ccc(C)cc2)Oc2ccc(C)cc2)cc1.Cc1ccc(OP(=O)(Oc2ccc(C)cc2)Oc2ccc(C)cc2)cc1.[Cu+2].[O-][Cl+3]([O-])([O-])O`, which T/C (dose: 50.0 mg/kg/injection, schedule: Q01DX001 (ip), vehicle: Klucel (hydroxypropylcellulose) (HPC)) is on record?
Answer: 96 % of control

Question: What about the T/C (dose: 100.0 mg/kg/injection, schedule: Q01DX001 (ip), vehicle: Klucel (hydroxypropylcellulose) (HPC)) of the same molecule?
Answer: 94 % of control

Question: And the T/C (dose: 200.0 mg/kg/injection, schedule: Q01DX001 (ip), vehicle: Klucel (hydroxypropylcellulose) (HPC))?
Answer: 92 % of control

Question: What does the source list for `CC(C)(C)C1=CC(=O)C(=O)C(C(C)(C)C)=C1`?
Answer: T/C (dose: 25.0 mg/kg/injection, schedule: Q01DX009 (ip), vehicle: other): 101 % of control; T/C (dose: 50.0 mg/kg/injection, schedule: Q01DX009 (ip), vehicle: other): 108 % of control; T/C (dose: 100.0 mg/kg/injection, schedule: Q01DX009 (ip), vehicle: other): 108 % of control

Question: Which T/C (dose: 1.56 mg/kg/injection, schedule: Q01DX009 (ip), vehicle: water) does the source give for `CCOC(=O)CC(COC)C(Br)(C(=O)OCC)C(=O)OCC` (configuration not stated) here?
Answer: 104 % of control

Question: What about the T/C (dose: 3.13 mg/kg/injection, schedule: Q01DX009 (ip), vehicle: water) of the same molecule?
Answer: 111 % of control

Question: And the T/C (dose: 6.25 mg/kg/injection, schedule: Q01DX009 (ip), vehicle: water)?
Answer: 107 % of control

Question: And the T/C (dose: 12.5 mg/kg/injection, schedule: Q01DX009 (ip), vehicle: water)?
Answer: 114 % of control

Question: And the T/C [5]?
Answer: 113 % of control

Question: Which T/C (dose: 15.0 mg/kg/injection, schedule: Q01DX005 (ip), vehicle: saline) does the source give for `O=c1oc(-c2cccc(C[n+]3ccccc3)c2)nc2cc(Cl)ccc12` here?
Answer: 98 % of control

Question: And the T/C (dose: 30.0 mg/kg/injection, schedule: Q01DX005 (ip), vehicle: saline)?
Answer: 100 % of control

Question: And the T/C (dose: 60.0 mg/kg/injection, schedule: Q01DX005 (ip), vehicle: saline)?
Answer: 102 % of control and 110 % of control

Question: How did the T/C [1] turn out when `COc1c(Br)cc(Br)cc1/C=C/[N+](=O)[O-]` was run?
Answer: 123 % of control

Question: How did the T/C [1] turn out when `CCC1=CCC2C(=O)C3C(C(=O)C2C1)C1(c2ccccc2)OC3(c2ccccc2)c2ccccc21` (configuration not stated) was run?
Answer: 95 % of control

Question: And the T/C [6]?
Answer: 88 % of control

Question: What about the T/C [7] of the same molecule?
Answer: 87 % of control

Question: Which results are given for `FC(F)(F)C1(C(F)(F)F)CC2COc3ccccc3C2=N1` (configuration not stated)?
Answer: T/C (dose: 50.0 mg/kg/injection, schedule: Q04DX002 (ip), vehicle: suspension in saline): 100 % of control; T/C (dose: 100.0 mg/kg/injection, schedule: Q04DX002 (ip), vehicle: suspension in saline): 99 % of control; T/C (dose: 200.0 mg/kg/injection, schedule: Q04DX002 (ip), vehicle: suspension in saline): 100 % of control

Question: Which T/C [8] does the source give for `COc1c(Br)c2c(c([N+](=O)[O-])c1OC)C(=O)OC2` here?
Answer: 103 % of control

Question: What about the T/C [9] of the same molecule?
Answer: 96 % of control

Question: And the T/C (dose: 100.0 mg/kg/injection, schedule: Q01DX005 (ip), vehicle: Klucel (hydroxypropylcellulose) (HPC))?
Answer: 96 % of control

Question: What about the T/C (dose: 200.0 mg/kg/injection, schedule: Q01DX005 (ip), vehicle: Klucel (hydroxypropylcellulose) (HPC)) of the same molecule?
Answer: 104 % of control

Question: Which results are given for `C/C=C/C1OC(=O)C=C1Sc1ccccc1` (configuration not stated)?
Answer: T/C [2]: 114 % of control; T/C [3]: 117 % of control; T/C [4]: 114 % of control

Question: `O=C1c2ccccc2CCC1[n+]1ccc2ccccc2c1` (configuration not stated) was tested. Which T/C (dose: 12.5 mg/kg/injection, schedule: Q01DX005 (ip), vehicle: Klucel (hydroxypropylcellulose) (HPC)) did it give?
Answer: 102 % of control

Question: What about the T/C [8] of the same molecule?
Answer: 104 % of control

Question: And the T/C [9]?
Answer: 106 % of control and 111 % of control

Question: For `CCCCCCCCCCOC(=O)c1ccc(O)cc1`, which T/C [1] is on record?
Answer: 97 % of control

Question: What about the T/C [6] of the same molecule?
Answer: 102 % of control

Question: And the T/C [7]?
Answer: 97 % of control

Question: `CC(C)n1nnnc1-c1ccccc1` was tested. Which T/C [10] did it give?
Answer: 94 % of control

Question: What about the T/C [11] of the same molecule?
Answer: 94 % of control

Question: What about the T/C [12] of the same molecule?
Answer: 94 % of control

Question: With `CSc1ccccc1[As](c1ccccc1)c1ccccc1SC` as the molecule, how does the T/C [10] read?
Answer: 90 % of control

Question: What about the T/C [11] of the same molecule?
Answer: 92 % of control

Question: And the T/C [12]?
Answer: 95 % of control

Question: With `CSC1SCC2C(=O)N(C)C(C(C)C)C(=O)OCC(NC(=O)c3cnc4ccccc4n3)C(=O)NC(C)C(=O)N(C)C1C(=O)N(C)C(C(C)C)C(=O)OCC(NC(=O)c1cnc3ccccc3n1)C(=O)NC(C)C(=O)N2C` (configuration not stated) as the molecule, how does the T/C (dose: 0.5 micrograms/kg/injection, schedule: Q01DX010 (ip), vehicle: saline) read?
Answer: 100 % of control

Question: And the T/C (dose: 30.0 micrograms/kg/injection, schedule: Q01DX009 (oral), vehicle: saline with Tween-80)?
Answer: 97 % of control

Question: What about the T/C (dose: 60.0 micrograms/kg/injection, schedule: Q01DX009 (ip), vehicle: saline with Tween-80) of the same molecule?
Answer: 205 % of control

Question: What about the T/C (dose: 60.0 micrograms/kg/injection, schedule: Q01DX009 (oral), vehicle: saline with Tween-80) of the same molecule?
Answer: 101 % of control

Question: And the T/C (dose: 120.0 micrograms/kg/injection, schedule: Q01DX009 (oral), vehicle: saline with Tween-80)?
Answer: 96 % of control

Question: What about the T/C (dose: 240.0 micrograms/kg/injection, schedule: Q01DX009 (ip), vehicle: saline with Tween-80) of the same molecule?
Answer: 117 % of control

Question: And the T/C (dose: 240.0 micrograms/kg/injection, schedule: Q01DX009 (oral), vehicle: saline with Tween-80)?
Answer: 99 % of control

Question: And the T/C (dose: 480.0 micrograms/kg/injection, schedule: Q01DX009 (oral), vehicle: saline with Tween-80)?
Answer: 96 % of control

Question: What does the source list for `Cc1cc(C)c(COCc2cc(C)c(C)cc2C)cc1C`?
Answer: T/C [5]: 86 % of control; T/C (dose: 100.0 mg/kg/injection, schedule: Q01DX009 (ip), vehicle: water): 90 % of control; T/C (dose: 200.0 mg/kg/injection, schedule: Q01DX009 (ip), vehicle: water): 106 % of control; T/C (dose: 400.0 mg/kg/injection, schedule: Q01DX009 (ip), vehicle: water): 104 % of control

Question: What does the source list for `CN(C)CCN(Cc1ccc(Cl)s1)c1ccccn1`?
Answer: T/C (dose: 50.0 mg/kg/injection, schedule: Q01DX005 (ip), vehicle: saline): 101 % of control; T/C (dose: 100.0 mg/kg/injection, schedule: Q01DX005 (ip), vehicle: saline): 99 % of control

Question: What does the source list for `C=C1C(=O)OC2/C=C(/C)C3(O)OC(C)(CC(OC(=O)C(C)C)C12)CC3OC(C)=O` (configuration not stated)?
Answer: T/C (dose: 25.0 mg/kg/injection, schedule: Q01DX009 (ip), vehicle: Klucel (hydroxypropylcellulose) (HPC)): 110 % of control; T/C [10]: 116 % of control
